pEC50: −log10 of the molar value. Active and inactive are the calls of the source.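 How the source made its calls: active means EC50 at or below 33 microM; inactive means the rest.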
Tested on: S. cerevisiae RPL19A-GFP strain, flow cytometry fluorescence, 3 h
Assay: RPL19A-GFP modulators, KU analog potency, SAR follow-up, cell-based, S. cerevisiae, flow cytometry, KU SAR compounds (AID 488808)

COc1ccc([N+](=O)[O-])c(S(=O)(=O)c2ccc(Cl)cc2)n1 and Cc1ccc(S(=O)(=O)c2ccc([N+](=O)[O-])cn2)cc1 are within 0.2 log units of each other in pEC50: 5.35 for the first, 5.42 for the second.

O=[N+]([O-])c1cc(Cl)c2cccnc2c1O and O=[N+]([O-])c1ccc(O)c2ncccc12 are within 0.2 log units of each other in pEC50: 4.57 for the first, 4.60 for the second.

Compared with CC(C)(C)C(=O)NC(=S)NNC(=O)c1ccc(-c2ccccc2)cc1, COc1ccc(C(=O)NC(=S)NNC(=O)c2cnccn2)cc1 is 1.63 log units higher in pEC50: 4.52 for the first, 6.15 for the second.

CCc1ccc(OCC(=O)NNC(=S)NC(=O)C2CC2)c(Br)c1 and CC(Oc1ccc(Cl)cc1)C(=O)NNC(=S)NC(=O)c1ccco1 (configuration not stated) are within 0.2 log units of each other in pEC50: 5.56 for the first, 5.45 for the second.

Cc1cc(C(=O)COC(=O)c2ccc[nH]c2=O)c(C)n1-c1ccccc1F and O=C(OCC(=O)N1CCN(C(=O)c2ccco2)CC1)c1cc(-c2ccc(F)cc2)nc2ccccc12 are within 0.2 log units of each other in pEC50: 5.48 for the first, 5.52 for the second.

Going from CCOC(=O)CSC1=NC(=O)/C(=C\c2ccc(Cl)cc2)S1 to Clc1ccc(N=c2ssnc2Cl)cc1, the pEC50 rises from 4.80 to 5.69 (0.89 log units).

Going from CSc1nnc2c3cc(F)ccc3n(C)c2n1 to Cc1ccc2nc(Cl)c3nnnn3c2c1, the pEC50 falls from 5.94 to 5.68 (0.26 log units). The first is the more potent here.

Compared with CC(C)(C)n1nc(-c2ccc(Cl)cc2)c2c(N)ncnc21, CC(C)(C)n1nc(-c2ccc(F)cc2)c2c(N)ncnc21 is 0.38 log units lower in pEC50: 6.38 for the first, 6.00 for the second. The first is the more potent here.

Compared with Cn1ncc(S(=O)(=O)Cc2ccccc2)c(Cl)c1=O, CCOC(=O)CS(=O)(=O)c1nc(-c2ccccc2)cc(C(F)(F)F)n1 is 1.04 log units lower in pEC50: 5.56 for the first, 4.52 for the second. The first is the more potent here.

Compared with COc1ccc(/C=C/C(=O)NC(=S)NNC(=O)c2cnccn2)cc1, O=C(NC(=S)NNC(=O)c1cnccn1)c1ccc(F)cc1 is 0.50 log units higher in pEC50: 4.94 for the first, 5.44 for the second. The second is the more potent here.

Compared with Cc1nn2c(-c3ccncc3)nnc2c2ccccc12, CCOC(=O)c1c(C)oc2c1c(C(c1cccnc1)N1CCOCC1)c(O)c1ccccc12 (configuration not stated) is 0.22 log units higher in pEC50: 5.34 for the first, 5.56 for the second.

O=S(=O)(CCN(CCS(=O)(=O)C(F)(F)F)CC1CCCO1)C(F)(F)F (configuration not stated) and O=[N+]([O-])c1cc(S(=O)(=O)C(F)(F)F)ccc1Sc1nc2ccccc2s1 are within 0.2 log units of each other in pEC50: 4.66 for the first, 4.76 for the second.

First: O=c1cc(CSc2ccc(Cl)cc2)nc(-c2ccccn2)[nH]1
Second: CC(=O)Nc1ncnc2c1c(-c1ccc(Cl)cc1)nn2C(C)(C)C
The pEC50 of the first is 0.96 log units higher: 5.90 for the first, 4.94 for the second. The first is the more potent here.

O=C(OCn1ncc(Br)c(Br)c1=O)c1ccc(F)cc1 and O=C(OCn1ncc(Br)c(Br)c1=O)c1c(F)cccc1F are within 0.2 log units of each other in pEC50: 5.34 for the first, 5.45 for the second.

First: O=[N+]([O-])c1ccc(S(=O)(=O)c2cccc(C(F)(F)F)c2)nc1
Second: CNc1nc(N)c([N+](=O)[O-])c(Nc2cccc(F)c2)n1
The pEC50 of the first is 0.58 log units higher: 5.86 for the first, 5.28 for the second.

CC1=NN(c2ccccc2)C(=O)C1C(c1ccccc1[N+](=O)[O-])C(C#N)C#N (configuration not stated) and Cc1ccc(NC(=O)c2ccc(Cl)c(N3C(=O)C=CC3=O)c2)cc1 are within 0.2 log units of each other in pEC50: 5.44 for the first, 5.52 for the second.

Going from Cc1ccc(NC(=O)c2cc(N3C(=O)C=CC3=O)ccc2N2CCOCC2)cc1Cl to O=C(OCC(=O)N1CCN(C(=O)c2ccco2)CC1)c1cc(-c2cccc(Br)c2)nc2ccccc12, the pEC50 falls from 6.11 to 5.09 (1.02 log units).

First: C[C@H]1C[C@@H](C)C(=O)[C@@H]([C@H](O)CC2CC(=O)NC(=O)C2)C1
Second: C[C@@H]1C[C@@H]([C@H](O)CC2CC(=O)NC(=O)C2)C(=O)[C@@H](C)C1
The pEC50 of the first is 0.32 log units higher: 6.38 for the first, 6.06 for the second. The first is the more potent here.

Compared with CC(C)(C)c1ccc(NC(=O)COC(=O)c2ccc([N+](=O)[O-])s2)cc1, CC(C)(C)C(=O)C(Cl)C(=O)Nc1ccccc1 (configuration not stated) is 0.31 log units lower in pEC50: 5.69 for the first, 5.38 for the second.

Compared with O=C(Oc1ccnc2cc(Cl)ccc12)N1CCCCCC1, Cc1ccc(-c2nn(C(C)(C)C)c3ncnc(N)c23)cc1 is 1.14 log units higher in pEC50: 4.78 for the first, 5.92 for the second.

In the case of CNc1nc(N)c([N+](=O)[O-])c(Nc2cc(OC)ccc2OC)n1, the pEC50 was 5.52.

With Cc1ccc(S(=O)(=O)c2ncccc2[N+](=O)[O-])cc1 the EC50 was 68.6 µM (inactive).
With Nc1cc(Oc2cccc(Cl)c2)nc(NCc2ccccc2)n1 the EC50 was 252 µM (inactive).
COC(=O)CCS(=O)(=O)c1nc(-c2ccccc2)cc(C(F)(F)F)n1 was tested, and the EC50 was 66.5 µM (inactive).
In the case of CN1CCN(C(=O)c2cc(COc3c(F)cccc3F)on2)CC1c1ccccc1 (configuration not stated), the EC50 was 58.4 µM (inactive).
In the case of CN(C)CCCNc1nc(N)c([N+](=O)[O-])c(Nc2cccc(F)c2)n1, the EC50 was 106 µM (inactive).
For C/C(=N\NC(=O)c1ccc(C(C)(C)C)cc1)c1ccccn1, the EC50 was 293 µM (inactive).
CCC(C)Nc1nc(N)c([N+](=O)[O-])c(Nc2cccc(F)c2)n1 (configuration not stated) was tested, and the EC50 was 50 µM (inactive).
For CCOC(=O)CCS(=O)(=O)c1nc(-c2ccccc2)cc(C(F)(F)F)n1, the EC50 was 47.9 µM (inactive).
Nc1cc(Nc2cccc(F)c2)nc(NCc2ccccc2)n1 was tested, and the EC50 was 292 µM (inactive).
COc1ccc([N+](=O)[O-])c(S(=O)(=O)c2ccccc2)n1 was tested, and the EC50 was 35.4 µM (inactive).
With O=C(Oc1c(Cl)cc(Cl)c2cccnc12)c1cccc([N+](=O)[O-])c1 the EC50 was 59.9 µM (inactive).
With c1ccc(-c2cccc(-c3ccccn3)n2)nc1 the EC50 was 49.9 µM (inactive).
For CSC1=NS(=O)(=O)c2c(C)nn(C)c2S1, the EC50 was 175 µM (inactive).
For Cc1ccc(C(=O)NNC(=S)NC(=O)COc2ccccc2)cc1, the EC50 was 52.7 µM (inactive).
Cc1cc(C(=O)Nc2nc(-c3ccccn3)cs2)ccc1[N+](=O)[O-] was tested, and the EC50 was 85.3 µM (inactive).
In the case of CCN(CC)C(=O)Oc1ccnc2cc(Cl)ccc12, the EC50 was 119 µM (inactive).
